The subject of data set [1] is human coronary artery smooth muscle cells (hCASMCs). In words: Microscopic evaluation of cell morphology after 3-day exposure. It is filed as cell-based. To be noted: hCASMC, 3 days. On the procedure:
(§1) Leptomycin B's anti-proliferative efficacy was tested at different concentrations (0.01 nM, 0.1 nM, 1.0 nM, 10.0 nM, 100 nM and 1000 nM) using a three day exposure to hCASMC. The same experiment was performed twice at two separate times to ascertain leptomycin's effect on cell proliferation using a cell viability assay, and the cell phenotype through a qualitative observation of cell morphology following the 3-day exposure to leptomycin B.
The evaluation of cell phenotype on drug-treated wells was performed by optical microscopy observation and capture of representative images at 200× (total magnification). Microscopic evaluation and pictures were performed before the proliferation assay was done on the 24-well drug-treated plate.
Representative microphotographs (See FIGS. 8-14) of cells exposed to different concentrations of leptomycin B for a period of three days. HCASMCs cultured in the absence of the drug (FIG. 8) reached a ˜90% confluency with the expected healthy phenotype at three days (duration of the assay), providing an adequate control.

For data set [2] the test system is unchanged. As to the kind of experiment: CellTiter-Glo Luminescent Cell Viability (proliferation) assay, 3-day exposure. It is filed as cell-based. On the procedure: as §1
The CellTiter-Glo® Luminescent Cell Viability Assay (Promega Corporation, Madison, Wis.) is a method of determining the number of viable cells in culture based on the quantitation of ATP, as an indicator of metabolically active cells (proliferating). A single reagent is added to cells directly in culture, this reagent lyses the cells and provides the luciferase enzyme that reacts with the liberated ATP to create a luminescent signal.
Twenty-four well plates were seeded with hCASMC at 5×10^3 cells per well (n=3) using methods know to those skilled in the art of cell culture. For example and not intended as a limitation: Materials • 1. Human coronary smooth muscles cells (HCASMC) are obtained from Clonetics, a division of Cambrex, Inc. • 2. HCASMC basal media, supplied by Clonetics and supplemented with fetal bovine serum, insulin, hFGF-B (human fibroblast growth factor) hEGF (human epidermal growth factor). • 3. Leptomycin B was purchased from LC Laboratories. Wobum, Mass., USA catalogue number L-6100 • 4. Absolute methanol • 5. Twenty-four well polystyrene tissue culture plates
Dilutions of the drug were made in serum-free cell culture media from the stock solution. A volume of 100 μL of each dilution was added to designated wells. […]
The CellTiter-Glo® Luminescent Cell Viability Assay (Promega Corporation, Madison, Wis.) was performed to assess percent viability. The CellTiter-Glo® Luminescent Cell Viability Assay is a homogeneous method of determining the number of viable cells in culture based on quantitation of the ATP present, which signals the presence of metabolically active cells. […]
A general note: Cellular ATP, detected with luciferase, serves as a proxy for viable cell number.

The source of these data is patent publication US20060099235A1, “Medical devices and compositions useful for treating or inhibiting restenosis” (Medtronic Vascular, Inc., priority 2004, published 2006).

A value given as a limit tells only on which side of the number the result lay.

As for `CCC(=C/[C@H](C)C/C=C/C(C)=C/[C@@H](C)C(=O)[C@@H](C)[C@H](O)[C@@H](C)C/C(C)=C/C(=O)O)/C=C/[C@@H]1OC(=O)C=C[C@@H]1C` [leptomycin B, 2,10,12,16,18-nonadecapentaenoic acid], the “microscopic signs of cytotoxicity” value in data set [1] (0.01-1000 nM) is listed as “No microscopic signs of cytotoxicity”. Also, in data set [1] (200x optical microscopy, control ~90% confluency), the level of confluence entry is given as “decreased level of confluence”. Besides, in data set [2] (0.01-1000 nM, two trials (FIGS. 6 and 7)), the “effect on human coronary artery smooth muscle cell proliferation” value is on record as “inhibitory effect”. The “concentration showing inhibitory effect on hCASMC proliferation in vitro” value in data set [2] (concentrations as low as) was at least 1 nM. Besides, in data set [2] (hCASMC), the “nature of the effect (cytostatic vs cytotoxic)” value is “predominantly cytostatic rather than cytotoxic”.
